Reference: patent US7256186B2, “Gamma secretase inhibitors” (Schering Corporation, priority 2002, dated 2007)
Where two headings read alike, the source gives them in different places.

Biological target: T1, Gamma secretase (Homo sapiens, UniProt P49768)
T1 construct: endogenous in cells; host or cells: Salt-washed membranes of 293 T-REx cells, clone pTRE.15; Only the substrate SPC99-Lon is transfected (pcDNA4/TO, tetracycline-induced)
Assay: Gamma secretase activity assay on membranes of 293 cells expressing SPC99-Lon (Aβ 40 / Aβ 42 measured by ECL immunoassay)
Format: biochemical
Settings: membrane γ-secretase assay
Procedure: Upon insertion into the membrane, the 17 amino acid signal peptide is processed, leaving an additional leucine at the N-terminus of Aβ. SPC99-lon was cloned into the pcDNA4/TO vector (Invitrogen) and transfected into 293 cells stably transfected with pcDNA6/TR, which is provided in the T-REx system (Invitrogen). The transfected cells were selected in Dulbecco's modified Eagle's media (DMEM) supplemented with 10% fetal bovine serum, 100 units/mL penicillin, 100 µg/mL streptomycin, 250 µg/mL zeocin, and 5 µg/mL blasticidin (Invitrogen). Colonies were screened for Aδ production by inducing C99 expression with 0.1 g/mL tetracycline for 16–20 h and analyzing conditioned media with a sandwich immunoassay (see below). One of the clones, designated as pTRE.15, was used in these studies.
C99 expression in cells was induced with […] tetracycline for 20 h. The cells were pretreated with […] 12-myristate 13-acetate (PMA) and […] A (BFA) for 5–6 h at 37 C before harvesting. The cells were washed 3 times with cold phosphate-buffered saline (PBS) and harvested in buffer A containing 20 mM Hepes (pH 7.5), 250 mM sucrose, 50 mM KCl, 2 mM EDTA, 2 mM EGTA, and Complete protease inhibitor tablets (Roche Molecular Biochemicals). The cell pellets were flash-frozen in liquid nitrogen and stored at −70 C before use.
To make membranes, the cells were resuspended in buffer A and lysed in a nitrogen bomb at 600 psi. The cell lysate was centrifuged at 1500 g for 10 min to remove nuclei and large cell debris. The supernatant was centrifuged at 100000 g for 1 h. The membrane pellet was resuspended in buffer A plus 0.5 M NaCl, and the membranes were collected by centrifugation at 200000 g for 1 h. The salt-washed membrane pellet was washed again in buffer A and centrifuged at 100000 g for 1 h. The final membrane pellet was resuspended in a small volume of buffer A using a Teflon-glass homogenizer. The protein concentration was determined, and membrane aliquots were flash-frozen in liquid nitrogen and stored at −70 C. γ-Secretase Reaction and Aβ Analysis
To measure γ-secretase activity, membranes were incubated at 37 C for 1 h in 50 L of buffer containing 20 mM Hepes (pH 7.0) and 2 mM EDTA. At the end of the incubation, Aβ 40 and Aβ 42 were measured using an electrochemiluminescence (ECL)-based immunoassay. Aβ 40 was identified with antibody pairs TAG-G2–10 and biotin-W02, while Aβ 42 was identified with TAG-G2–11 and biotin-4G8. The ECL signal was measured using an ECL-M8 instrument (IGEN International, Inc.) according to the manufacturer's instructions. The data presented were the means of the duplicate or triplicate measurements in each experiment.

[1] = 37 C, 1 h, read-out: IC50 (μM), γ-secretase inhibitory activity
[2] = range stated for a group of examples, read-out: IC50 within the range stated, gamma secretase assay

IC50 [1]	IC50 [2]	Compound
0.0023 µM	0.0002 to 0.015 µM	O=C(OC[C@H]1CCC[C@@H](c2cc(F)cc(F)c2)N1S(=O)(=O)c1ccc(Cl)cc1)N1CCC(N2CCCCC2)CC1 [Example 67-BG]
	0.0002 to 0.015 µM	O=C(OC[C@H]1CCC[C@@H](c2cccc(F)c2)N1S(=O)(=O)c1ccc(F)cc1)N1CCC(N2CCCCC2)CC1 [Example 67-U]
0.0002 µM	0.0002 to 0.015 µM	O=C(OC1([C@H]2CCC[C@@H](c3cc(F)cc(F)c3)N2S(=O)(=O)c2ccc(Cl)cc2)CC1)N1CCC(N2CCCCC2)CC1 [Example 173]
	0.0002 to 0.015 µM	O=C(OC[C@@H]1CCC[C@H](C2CC2)N1S(=O)(=O)c1ccc(Cl)cc1)N1CCN(C2CCCCC2)CC1 [Example 160-B]
0.0008 µM	0.0002 to 0.015 µM	NC(=O)C1(N2CCCCC2)CCN(C(=O)OC2([C@H]3CCC[C@@H](c4cc(F)cc(F)c4)N3S(=O)(=O)c3ccc(Cl)cc3)CC2)CC1 [Example 173-J]
	0.0002 to 0.015 µM	O=C(OC[C@H]1CCC[C@@H](c2cccc(F)c2)N1S(=O)(=O)c1ccc(Cl)cc1)N1CCC(N2CCC(F)(F)CC2)CC1 [Example 67-N]
	0.0002 to 0.015 µM	O=C(OC[C@H]1CCC[C@@H](c2ccc(F)c(F)c2)N1S(=O)(=O)c1ccc(Cl)cc1)N1CCC(N2CCCCC2)CC1 [Example 67-BD]
	0.0002 to 0.015 µM	O=C(OC1([C@H]2CCC[C@@H](C3CC3)N2S(=O)(=O)c2ccc(Cl)cc2)CC1)N1CCN(CC2CC2)CC1 [Example 161-F]
	0.0002 to 0.015 µM	O=C(OC1(C2CCCC(c3cccc(F)c3)N2S(=O)(=O)c2ccc(Cl)cc2)CC1)N1CCC2(CC1)NCNC2=O (centres unmarked) [Example 173-G]
0.0027 µM	0.0002 to 0.015 µM	NC(=O)C1(N2CCCCC2)CCN(C(=O)OC2(C3CCCC(c4cccc(F)c4)N3S(=O)(=O)c3ccc(Cl)cc3)CC2)CC1 (centres unmarked) [Example 173-E]
	0.0002 to 0.015 µM	CC(C)N1CCN(C(=O)OC2([C@H]3CCC[C@@H](C4CC4)N3S(=O)(=O)c3ccc(Cl)cc3)CC2)CC1 [Example 161-E]
	0.0002 to 0.015 µM	CC1CC(N2CCCCC2)CCN1C(=O)OC[C@@H]1CCC[C@H](C2CC2)N1S(=O)(=O)c1ccc(Cl)cc1 (some centres unmarked) [Example 160-K]
	0.0002 to 0.015 µM	CC1(N2CCCCC2)CCN(C(=O)OC[C@H]2CCC[C@@H](c3cccc(F)c3)N2S(=O)(=O)c2ccc(Cl)cc2)CC1 [Example 67-BA]
	0.0002 to 0.015 µM	O=C(OC1([C@H]2CCC[C@@H](c3cc(F)cc(F)c3)N2S(=O)(=O)c2ccc(Cl)cc2)CC1)N1CCC2(CC1)C(=O)NCN2c1ccccc1 [Example 173-L]
	0.0002 to 0.015 µM	NC(=O)C1(N2CCCCC2)CCN(C(=O)OC[C@H]2CCC[C@@H](c3cc(F)cc(F)c3)N2S(=O)(=O)c2ccc(Cl)cc2)CC1 [Example 67-BH]
	0.0002 to 0.015 µM	O=C(OC1([C@H]2CCC[C@@H](c3ccc(F)cc3F)N2S(=O)(=O)c2ccc(Cl)cc2)CC1)N1CCC(N2CCCCC2)CC1 [Example 173-I]
0.0038 µM		O=C(OC[C@H]1CCC[C@@H](c2cc(F)cc(F)c2)N1S(=O)(=O)c1ccc(Cl)cc1)N1CCC(N2CCCCC2)CC1 [Example 67-AT]
	0.0002 to 0.015 µM	O=C(OC1([C@H]2CCC[C@@H](c3cc(F)cc(F)c3)N2S(=O)(=O)c2ccc(Cl)cc2)CC1)N1CCN(C2CCCCC2)CC1 [Example 173-K]
0.0028 µM	0.0002 to 0.015 µM	O=C(OC1([C@H]2CCC[C@@H](C3CC3)N2S(=O)(=O)c2ccc(Cl)cc2)CC1)N1CCC(N2CCCCC2)CC1 [Example 161-A]
	0.0002 to 0.015 µM	O=C(OC[C@H]1CCC[C@@H](c2cc(F)ccc2F)N1S(=O)(=O)c1ccc(Cl)cc1)N1CCC(N2CCCCC2)CC1 [Example 67-BL]
	0.0002 to 0.015 µM	O=C(OC1(C2CCCC(c3cccc(F)c3)N2S(=O)(=O)c2ccc(Cl)cc2)CC1)N1CCN(C2CCCCC2)CC1 (centres unmarked) [Example 173-B]
0.0018 µM	0.0002 to 0.015 µM	O=C(OC1(C2CCCC(c3cccc(F)c3)N2S(=O)(=O)c2ccc(Cl)cc2)CC1)N1CCN(CCO)CC1 (centres unmarked) [Example 173-C]
	0.0002 to 0.015 µM	O=C(OC[C@H]1CCC[C@@H](c2ccccc2F)N1S(=O)(=O)c1ccc(Cl)cc1)N1CCC(N2CCCCC2)CC1 [Example 67-E]
	0.0002 to 0.015 µM	C=C1CCN(C2CCN(C(=O)OC[C@H]3CCC[C@@H](c4cccc(F)c4)N3S(=O)(=O)c3ccc(Cl)cc3)CC2)CC1 [Example 67-P]
0.0027 µM	0.0002 to 0.015 µM	O=C(OC[C@H]1CCC[C@@H](c2cccc(F)c2)N1S(=O)(=O)c1ccc(Cl)cc1)N1CCC(N2CCCCC2)CC1 [Example 67-B]
0.0007 µM	0.0002 to 0.015 µM	O=C(OC1(C2CCCC(c3cccc(F)c3)N2S(=O)(=O)c2ccc(Cl)cc2)CC1)N1CCC(N2CCCCC2)CC1 (centres unmarked) [Example 173-A]
	0.0002 to 0.015 µM	Cc1cc([C@@H]2CCC[C@H](COC(=O)N3CCC(N4CCCCC4)CC3)N2S(=O)(=O)c2ccc(Cl)cc2)ccc1F [Example 67-BE]
